According to patent publication US20160039880A1 (priority 2012, published 2016):
Converted amounts (≈) assume the structure as drawn. Read-outs that look alike come from different tables or passages of the source.

Columns and labels:
[1] = Water Solubility Assay (measured in pH 7.8 buffer); format: physicochemical; conditions: kinetic from dmso stock;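 further: precipitation onset detected as rise in absorbance at 650 nm across increasing concentrations, after shaking for 18 h, blank wells receiving DMSO only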
[2] = molecular target: Human recombinant cyclophilin A (Cyp A) (Homo sapiens, UniProt P62937); assay: Protease-free PPIase assay;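 further: cis to trans isomerization of SUC-AAPF-pNA by 2 nM enzyme, read as absorbance at 330 nm over 300 s at 10 °C, catalytic rate corrected for uncatalyzed background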
Human recombinant cyclophilin A (Cyp A), sequence (P62937 whole entry): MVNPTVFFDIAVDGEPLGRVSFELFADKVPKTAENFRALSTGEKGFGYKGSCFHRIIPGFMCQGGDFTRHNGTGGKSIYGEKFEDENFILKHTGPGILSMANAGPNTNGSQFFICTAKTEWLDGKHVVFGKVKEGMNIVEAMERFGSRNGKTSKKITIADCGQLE

[3] = 35 mM HEPES buffer pH 7.8, 25 °C, aqueous buffer, pH 7.8 buffer, read-out: Water Solubility Assay

SMILES	solubility at 18 h [1, 3] [µM]	Ki [2] [nM]	solubility at 18 h ([1]; 25 °C, pH 7.8, aqueous buffer) [µM]
CC[C@H]1NC(=O)[C@@H]([C@H](O)[C@H](C)CCN(Cc2ccccn2)Cc2ccccn2)N(C)C(=O)[C@@H](C(C)C)N(C)C(=O)[C@@H](CC(C)C)N(C)C(=O)[C@@H](CC(C)C)N(C)C(=O)[C@H](C)NC(=O)[C@@H](C)NC(=O)[C@@H](CC(C)C)N(C)C(=O)[C@@H](C(C)C)NC(=O)[C@H](CC(C)C)N(C)C(=O)[C@@H](C)N(C)C1=O [Compound DB, [(3R,4R,5S)-1-(Bis{pyridin-2-ylmethyl}amino)-4-hydroxy-3-methyl-5-(methylamino)-hexanoic acid]^1[(R)-methyl-Sar]^3 cyclosporin A]	75 to 100 (≈ 104 to 139 µg/mL)	7.4	–
CC[C@H]1NC(=O)[C@@H]([C@H](O)[C@H](C)CCN(C)c2ccccc2)N(C)C(=O)[C@@H](C(C)C)N(C)C(=O)[C@@H](CC(C)C)N(C)C(=O)[C@@H](CC(C)C)N(C)C(=O)[C@H](C)NC(=O)[C@@H](C)NC(=O)[C@@H](CC(C)C)N(C)C(=O)[C@@H](C(C)C)NC(=O)[C@H](CC(C)C)N(C)C(=O)[C@@H](C)N(C)C1=O [Compound DC, [(3R,4R,5S)-4-Hydroxy-3-methyl-5-(methylamino)-1-(methyl-phenyl-amino)-hexanoic acid]^1[(R)-methyl-Sar]^3 cyclosporin A]	–	6	10 to 25 (≈ 13 to 32.4 µg/mL)
CC[C@H]1NC(=O)[C@@H]([C@H](O)[C@H](C)CCN(C)c2ccccn2)N(C)C(=O)[C@@H](C(C)C)N(C)C(=O)[C@@H](CC(C)C)N(C)C(=O)[C@@H](CC(C)C)N(C)C(=O)[C@H](C)NC(=O)[C@@H](C)NC(=O)[C@@H](CC(C)C)N(C)C(=O)[C@@H](C(C)C)NC(=O)[C@H](CC(C)C)N(C)C(=O)[C@@H](C)N(C)C1=O [Compound DD, [(3R,4R,5S)-4-Hydroxy-3-methyl-5-(methylamino)-1-(methyl-pyridin-2-yl-amino)-hexanoic acid]^1[(R)-methyl-Sar]^3 cyclosporin A]	–	4.8	25 to 50 (≈ 32.4 to 64.8 µg/mL)
CC[C@H]1NC(=O)[C@@H]([C@H](O)[C@H](C)CCN(C)CCS(N)(=O)=O)N(C)C(=O)[C@@H](C(C)C)N(C)C(=O)[C@@H](CC(C)C)N(C)C(=O)[C@@H](CC(C)C)N(C)C(=O)[C@H](C)NC(=O)[C@@H](C)NC(=O)[C@@H](CC(C)C)N(C)C(=O)[C@@H](C(C)C)NC(=O)[C@H](CC(C)C)N(C)C(=O)[C@@H](C)N(C)C1=O [Compound DE]	–	5.8	> 100
CC[C@H]1NC(=O)[C@@H]([C@H](O)[C@H](C)CCN(C)Cc2cncn2C)N(C)C(=O)[C@@H](C(C)C)N(C)C(=O)[C@@H](CC(C)C)N(C)C(=O)[C@@H](CC(C)C)N(C)C(=O)[C@H](C)NC(=O)[C@@H](C)NC(=O)[C@@H](CC(C)C)N(C)C(=O)[C@@H](C(C)C)NC(=O)[C@H](CC(C)C)N(C)C(=O)[C@@H](C)N(C)C1=O [Compound DI, [(3R,4R,5S)-4-Hydroxy-3-methyl-5-(methylamino)-1-({3-methyl-3H-imidazol-4-ylmethyl}-methylamino)-hexanoic acid]^1[(R)-methyl-Sar]^3 cyclosporin A]	> 100	4.3	–
CC[C@H]1NC(=O)[C@@H]([C@H](O)[C@H](C)CCN(C)CC(C)C#N)N(C)C(=O)[C@@H](C(C)C)N(C)C(=O)[C@@H](CC(C)C)N(C)C(=O)[C@@H](CC(C)C)N(C)C(=O)[C@H](C)NC(=O)[C@@H](C)NC(=O)[C@@H](CC(C)C)N(C)C(=O)[C@@H](C(C)C)NC(=O)[C@H](CC(C)C)N(C)C(=O)[C@@H](C)N(C)C1=O (stereo partly drawn) [Compound DK, [(3R,4R,5S)-1-({2-Cyano-propyl}-methyl-amino)-4-hydroxy-3-methyl-5-(methylamino)-hexanoic acid]^1[(R)-methyl-Sar]^3 cyclosporin A]	–	13	> 100

Continued, values first:

solubility at 18 h [1, 3] [µM]	Ki [2] [nM]	solubility at 18 h ([1]; 25 °C, pH 7.8, aqueous buffer) [µM]	SMILES
> 100	14	–	CC[C@H]1NC(=O)[C@@H]([C@H](O)[C@H](C)CCN(C)Cc2cccnc2)N(C)C(=O)[C@@H](C(C)C)N(C)C(=O)[C@@H](CC(C)C)N(C)C(=O)[C@@H](CC(C)C)N(C)C(=O)[C@H](C)NC(=O)[C@@H](C)NC(=O)[C@@H](CC(C)C)N(C)C(=O)[C@@H](C(C)C)NC(=O)[C@H](CC(C)C)N(C)C(=O)[C@@H](C)N(C)C1=O [Compound DF, [(3R,4R,5S)-4-Hydroxy-3-methyl-5-(methylamino)-1-({pyridin-3-ylmethyl}-methylamino)-hexanoic acid]^1[(R)-methyl-Sar]^3 cyclosporin A]
> 100	8.5	–	CC[C@H]1NC(=O)[C@@H]([C@H](O)[C@H](C)CCN(C)Cc2ncccn2)N(C)C(=O)[C@@H](C(C)C)N(C)C(=O)[C@@H](CC(C)C)N(C)C(=O)[C@@H](CC(C)C)N(C)C(=O)[C@H](C)NC(=O)[C@@H](C)NC(=O)[C@@H](CC(C)C)N(C)C(=O)[C@@H](C(C)C)NC(=O)[C@H](CC(C)C)N(C)C(=O)[C@@H](C)N(C)C1=O [Compound DG, [(3R,4R,5S)-4-Hydroxy-3-methyl-5-(methylamino)-1-({pyrimidin-2-ylmethyl}-methylamino)-hexanoic acid]^1[(R)-methyl-Sar]^3 cyclosporin A]
> 100	9.1	–	CC[C@H]1NC(=O)[C@@H]([C@H](O)[C@H](C)CCN(C)Cc2cnccn2)N(C)C(=O)[C@@H](C(C)C)N(C)C(=O)[C@@H](CC(C)C)N(C)C(=O)[C@@H](CC(C)C)N(C)C(=O)[C@H](C)NC(=O)[C@@H](C)NC(=O)[C@@H](CC(C)C)N(C)C(=O)[C@@H](C(C)C)NC(=O)[C@H](CC(C)C)N(C)C(=O)[C@@H](C)N(C)C1=O [Compound DH, [(3R,4R,5S)-4-Hydroxy-3-methyl-5-(methylamino)-1-({pyrazin-2-ylmethyl}-methylamino)-hexanoic acid]^1[(R)-methyl-Sar]^3 cyclosporin A]
> 100	5.4	–	CC[C@H]1NC(=O)[C@@H]([C@H](O)[C@H](C)CCN(C)Cc2ccnn2C)N(C)C(=O)[C@@H](C(C)C)N(C)C(=O)[C@@H](CC(C)C)N(C)C(=O)[C@@H](CC(C)C)N(C)C(=O)[C@H](C)NC(=O)[C@@H](C)NC(=O)[C@@H](CC(C)C)N(C)C(=O)[C@@H](C(C)C)NC(=O)[C@H](CC(C)C)N(C)C(=O)[C@@H](C)N(C)C1=O [Compound DJ, [(3R,4R,5S)-4-Hydroxy-3-methyl-5-(methylamino)-1-({2-methyl-2H-pyrazol-3-ylmethyl}-methylamino)-hexanoic acid]^1[(R)-methyl-Sar]^3 cyclosporin A]
> 100	5.7	–	CC[C@H]1NC(=O)[C@@H]([C@H](O)[C@H](C)CCN(C)Cc2ccncc2)N(C)C(=O)[C@@H](C(C)C)N(C)C(=O)[C@@H](CC(C)C)N(C)C(=O)[C@@H](CC(C)C)N(C)C(=O)[C@H](C)NC(=O)[C@@H](C)NC(=O)[C@@H](CC(C)C)N(C)C(=O)[C@@H](C(C)C)NC(=O)[C@H](CC(C)C)N(C)C(=O)[C@@H](C)N(C)C1=O [Compound DL, [(3R,4R,5S)-4-Hydroxy-3-methyl-5-(methylamino)-1-({pyridin-4-ylmethyl}-methylamino)-hexanoic acid]^1[(R)-methyl-Sar]^3 cyclosporin A]
